We go through 2 molecules from patent publication US10668018B2, “Pharmaceutical compositions” (MEXICHEM AMANCO HOLDINGS S.A. DE C.V., priority 2011, dated 2020).

The nature of data set [1]: Amount of ethanol required to dissolve the drug in propellant/ethanol mixture (visual, first clear solution). Format: physicochemical. The settings on record: for ethanol required to dissolve the drug: 20° C., drug amount equivalent to MDI dose of 50 μg (FP) or 250 μg (BDP); for Ethanol Content in R-134a / Ethanol Content in R-152a: amount required to dissolve the drug completely, BDP 250 μg, FP 50 μg dose. The protocol: A series of glass vials were charged with 0.00869 g (8.69 mg) of fluticasone propionate. R-152a propellant was then added to each vial, the amount being decreased from one vial to the next to compensate for increasing amounts of ethanol. An amount of ethanol was then added to each vial, with the amount being increased in increments from one vial to the next, in order to determine the minimum amount of ethanol required to dissolve the fluticasone propionate in the R-152a/ethanol mixture. […] The amount of ethanol in the R-152a/ethanol mixture was increased from 1% by weight on the total weight of the R-152a/ethanol mixture in 1% w/w increments. After adding the ethanol, each vial was sonicated in an effort to dissolve the drug, stored at 20° C. and then examined visually to determine whether the drug had in fact dissolved. […] It was determined that 5.0% w/w of ethanol was required to dissolve the fluticasone propionate. […] R-152a propellant was then added to each vial, the amount being decreased from one vial to the next to compensate for increasing amounts of ethanol. […] The amount of ethanol in the R-152a/ethanol mixture was increased from 1% by weight on the total weight of the R-152a/ethanol mixture in 1% w/w increments. After adding the ethanol, each vial was sonicated in an effort to dissolve the drug, stored at 20° C. and then examined visually to determine whether the drug had in fact dissolved. […] Exactly the same procedure as described in Example 3 above was used except that R-134a was used as the propellant. It was determined that 13.0% w/w of ethanol (% by weight on the total weight of the R-134a/ethanol mixture) was required to dissolve the fluticasone propionate. […] Exactly the same procedure as described in Example 4 above was used except that R-134a was used as the propellant. […] The drug was weighed directly into standard aluminium 19 mL cans (C128, Presspart, Blackburn, UK), to which an appropriate amount of ethanol was added to aid solubility of the drug on addition of the propellant. The slurry of the drug in ethanol was then sonicated for 60 minutes in order to disperse the drug in the ethanol. The cans were then crimped with a 50 μL valve (Bespak, Kings Lynn, UK) following which R-152a or R-134a as appropriate was filled into the cans through the valve using a manual Pamasol crimper/filler (Pamasol, Switzerland). […] Finally, all the cans were quarantined for 14 days, valve down, at 22° C./44% RH before commencing testing of the final formulations.

The nature of data set [2]: Solubility of drug in liquefied propellant (pressure solubility apparatus, HPLC). Format: physicochemical. The settings on record: stored at 20° C. for 24 hours, n=3.
Experimental: An excess of active pharmaceutical ingredient was placed into a pressure cylinder (300 cm^3 stainless steel cylinder from Whitey, Inc.). A vacuum was applied to the cylinder, which was then chilled using liquid nitrogen. Approximately 80 grams of either R-152a or R-134a propellant was charged into the cylinder, which was then stored at 20° C. for 24 hours.
A filtration unit comprising a 15 μm filter in-line with a 5 μm filter was connected to the cylinder containing the excess of drug in propellant. A second receiver pressure cylinder (150 cm^3 stainless steel cylinder from Whitey, Inc.) was exposed to a vacuum and chilled using liquid nitrogen, which was then connected to the filtration unit. Approximately 30 grams of liquid propellant containing drug in excess was passed through the filtration unit and collected in the receiver pressure cylinder.
A modified piece of 3.2 mm (⅛″) tubing was connected to the end of the receiver pressure cylinder, which was then attached to the stem of a continuous valve crimped on to a glass bottle. The 3.2 mm (⅛″) tubing was used to depress the stem of the valve and therefore, enable the contents of the receiver pressure cylinder to be collected in the glass bottle. […] The glass bottle was re-weighed and the mass of drug collected in the DUSA was determined by high performance liquid chromatography (HPLC). […]

Consider `CCC(=O)OCC(=O)[C@@]1(OC(=O)CC)[C@@H](C)C[C@H]2[C@@H]3CCC4=CC(=O)C=C[C@]4(C)[C@@]3(Cl)[C@@H](O)C[C@@]21C` [beclomethasone dipropionate], for which, in data set [1] (R-134a/ethanol mixture), the “ethanol required to dissolve the drug” value came to 4.0 % w/w. The “ethanol required to dissolve the drug” value in data set [1] (R-152a/ethanol mixture) is given as 2.0 % w/w. In data set [1], the “Ethanol Content in R-134a” value stood at 4.0 % w/w and the “Ethanol Content in R-152a” value is listed as 2.0 % w/w.
Consider `CCC(=O)O[C@]1(C(=O)SCF)[C@H](C)C[C@H]2[C@@H]3C[C@H](F)C4=CC(=O)C=C[C@]4(C)[C@@]3(F)[C@@H](O)C[C@@]21C` [fluticasone propionate], for which the “mean drug solubility (± S.D.)” value in data set [2] (propellant comprising 100% R-134a) came out at 14.27 ± 1.66 µg/g; in data set [2] (propellant comprising 100% R-152a) it was 73.55 ± 3.98 µg/g. The “ethanol required to dissolve the drug” value is reported as 13.0 % w/w in data set [1] (R-134a/ethanol mixture) and 5.0 % w/w in data set [1] (R-152a/ethanol mixture). The “Ethanol Content in R-134a” value in data set [1] turned out to be 13.0 % w/w. The “Ethanol Content in R-152a” value in data set [1] is 5.0 % w/w.
